In PubChem BioAssay AID1259407 (Chemical Carcinogenesis Research Information System (CCRIS), 2018):
The source made the active and inactive calls. No rule for the calls is given here. Where a SMILES comes first, the peptide text is derived from it.

Tested on: CCRIS mutagenicity, Ames/micronucleus/aberration tests
Experiment: CCRIS mutagenicity studies
[1] = Test System: AMES SALMONELLA TYPHIMURIUM, Strain/Indicator: TA98, Metabolic Activation: HAMSTER, LIVER, S-9, AROCLOR 1254 (10%), Method: PREINCUBATION
[2] = Test System: AMES SALMONELLA TYPHIMURIUM, Strain/Indicator: TA98, Metabolic Activation: NONE, Method: PREINCUBATION
[3] = Test System: AMES SALMONELLA TYPHIMURIUM, Strain/Indicator: TA98, Metabolic Activation: NONE, Method: STANDARD PLATE
[4] = Test System: AMES SALMONELLA TYPHIMURIUM, Strain/Indicator: TA98, Metabolic Activation: RAT, LIVER, S-9, AROCLOR 1254 (10%), Method: PREINCUBATION
[5] = Test System: AMES SALMONELLA TYPHIMURIUM, Strain/Indicator: TA98, Metabolic Activation: RAT, LIVER, S-9, AROCLOR 1254, Method: STANDARD PLATE
[6] = Test System: AMES SALMONELLA TYPHIMURIUM, Strain/Indicator: TA100, Metabolic Activation: HAMSTER, LIVER, S-9, AROCLOR 1254 (10%), Method: PREINCUBATION
[7] = Test System: AMES SALMONELLA TYPHIMURIUM, Strain/Indicator: TA100, Metabolic Activation: NONE, Method: PREINCUBATION
[8] = Test System: AMES SALMONELLA TYPHIMURIUM, Strain/Indicator: TA100, Metabolic Activation: NONE, Method: STANDARD PLATE
[9] = Test System: AMES SALMONELLA TYPHIMURIUM, Strain/Indicator: TA100, Metabolic Activation: RAT, LIVER, S-9, AROCLOR 1254 (10%), Method: PREINCUBATION
[10] = Test System: AMES SALMONELLA TYPHIMURIUM, Strain/Indicator: TA100, Metabolic Activation: RAT, LIVER, S-9, AROCLOR 1254, Method: STANDARD PLATE
[11] = Test System: AMES SALMONELLA TYPHIMURIUM, Strain/Indicator: TA1535, Metabolic Activation: HAMSTER, LIVER, S-9, AROCLOR 1254 (10%), Method: PREINCUBATION
[12] = Test System: AMES SALMONELLA TYPHIMURIUM, Strain/Indicator: TA1535, Metabolic Activation: NONE, Method: PREINCUBATION
[13] = Test System: AMES SALMONELLA TYPHIMURIUM, Strain/Indicator: TA1535, Metabolic Activation: RAT, LIVER, S-9, AROCLOR 1254 (10%), Method: PREINCUBATION
[14] = Test System: AMES SALMONELLA TYPHIMURIUM, Strain/Indicator: TA1537, Metabolic Activation: HAMSTER, LIVER, S-9, AROCLOR 1254 (10%), Method: PREINCUBATION
[15] = Test System: AMES SALMONELLA TYPHIMURIUM, Strain/Indicator: TA1537, Metabolic Activation: NONE, Method: PREINCUBATION
[16] = Test System: AMES SALMONELLA TYPHIMURIUM, Strain/Indicator: TA1537, Metabolic Activation: NONE, Method: STANDARD PLATE
[17] = Test System: AMES SALMONELLA TYPHIMURIUM, Strain/Indicator: TA1537, Metabolic Activation: RAT, LIVER, S-9, AROCLOR 1254 (10%), Method: PREINCUBATION
[18] = Test System: AMES SALMONELLA TYPHIMURIUM, Strain/Indicator: TA1537, Metabolic Activation: RAT, LIVER, S-9, AROCLOR 1254, Method: STANDARD PLATE

SMILES | mutagenic call [1] | mutagenic call [2] | mutagenic call [3] | mutagenic call [4] | mutagenic call [5] | mutagenic call [6] | mutagenic call [7] | mutagenic call [8] | mutagenic call [9] | mutagenic call [10] | mutagenic call [11] | mutagenic call [12] | mutagenic call [13] | mutagenic call [14] | mutagenic call [15] | mutagenic call [16] | mutagenic call [17] | mutagenic call [18] | further results
Nc1c(Br)cc([N+](=O)[O-])cc1[N+](=O)[O-] | active; positive | active; positive | active; positive | active; positive | active; positive | active; positive | active; positive | active; positive | active; positive | active; positive | inactive; negative | inactive; negative | inactive; negative | active; positive | active; positive | active; positive | active; positive | active; positive | mutagenic call (Test System: AMES SALMONELLA TYPHIMURIUM, Strain/Indicator: TA98, Metabolic Activation: HAMSTER, LIVER, S-9, AROCLOR 1254, Method: STANDARD PLATE): active; positive; mutagenic call (Test System: AMES SALMONELLA TYPHIMURIUM, Strain/Indicator: TA98, Metabolic Activation: RAT, LIVER, S-9, KANECHLOR 500, Method: PREINCUBATION): active; positive; mutagenic call (Test System: AMES SALMONELLA TYPHIMURIUM, Strain/Indicator: TA100, Metabolic Activation: HAMSTER, LIVER, S-9, AROCLOR 1254, Method: STANDARD PLATE): active; positive; mutagenic call (Test System: AMES SALMONELLA TYPHIMURIUM, Strain/Indicator: TA100, Metabolic Activation: RAT, LIVER, S-9, KANECHLOR 500, Method: PREINCUBATION): active; positive; mutagenic call (Test System: AMES SALMONELLA TYPHIMURIUM, Strain/Indicator: TA1537, Metabolic Activation: HAMSTER, LIVER, S-9, AROCLOR 1254, Method: STANDARD PLATE): active; positive; mutagenic call (Test System: AMES SALMONELLA TYPHIMURIUM, Strain/Indicator: TA1538, Metabolic Activation: HAMSTER, LIVER, S-9, AROCLOR 1254, Method: STANDARD PLATE): active; positive; mutagenic call (Test System: AMES SALMONELLA TYPHIMURIUM, Strain/Indicator: TA1538, Metabolic Activation: NONE, Method: STANDARD PLATE): active; positive; mutagenic call (Test System: AMES SALMONELLA TYPHIMURIUM, Strain/Indicator: TA1538, Metabolic Activation: RAT, LIVER, S-9, AROCLOR 1254, Method: STANDARD PLATE): active; positive; mutagenic call (Test System: MOUSE LYMPHOMA, Strain/Indicator: L5178Y (TK+/TK-), Metabolic Activation: NONE, Method: SUSPENSION/PLATE): active; positive. reevaluation of results: positive; mutagenic call (Test System: MOUSE LYMPHOMA, Strain/Indicator: L5178Y (TK+/TK-), Metabolic Activation: RAT, LIVER, S-9, AROCLOR 1254, Method: SUSPENSION/PLATE): active; positive. reevaluation of results: positive
N#CCBr | inactive; negative | inactive; negative | – | inactive; negative | – | inactive; negative | inactive; negative | – | inactive; negative | – | inactive; negative | inactive; negative | inactive; negative | inactive; negative | inactive; negative | – | inactive; negative | – | mutagenic call (Test System: AMES SALMONELLA TYPHIMURIUM, Strain/Indicator: TA100, Metabolic Activation: NONE, Method: FLUCTUATION TEST): inactive; negative; mutagenic call (Test System: AMES SALMONELLA TYPHIMURIUM, Strain/Indicator: TA100, Metabolic Activation: RAT, LIVER, S-9, AROCLOR 1254, Method: FLUCTUATION TEST): active; positive
C[N+](C)(C)CC(=O)O | – | – | – | – | – | – | – | inactive; negative | – | inactive; negative | – | – | – | – | – | – | – | – | –
NCCCC[C@H](NC(=O)[C@H](Cc1c[nH]c2ccccc12)NC(=O)[C@@H](N)CCCCN)C(=O)O (H-Lys-Trp-Lys-OH) | – | – | inactive; negative | – | inactive; negative | – | – | inactive; negative | – | inactive; negative | – | – | – | – | – | inactive; negative | – | inactive; negative | mutagenic call (Test System: AMES SALMONELLA TYPHIMURIUM, Strain/Indicator: TA1535, Metabolic Activation: NONE, Method: STANDARD PLATE): inactive; negative; mutagenic call (Test System: AMES SALMONELLA TYPHIMURIUM, Strain/Indicator: TA1535, Metabolic Activation: RAT, LIVER, S-9, AROCLOR 1254, Method: STANDARD PLATE): inactive; negative
Clc1ccccc1 | – | inactive; negative | – | – | – | – | inactive; negative | – | – | – | – | inactive; negative | – | – | inactive; negative | – | – | – | mutagenic call (End Point: IN VITRO CHROMOSOMAL ABERRATIONS, Test System: CHO CELLS, Metabolic Activation: NONE): inactive; negative; mutagenic call (End Point: IN VITRO CHROMOSOMAL ABERRATIONS, Test System: CHO CELLS, Metabolic Activation: RAT, LIVER, S-9, AROCLOR 1254): inactive; negative; previous trial yielded a positive response at 150 ug/ml but no dose-re; mutagenic call (Test System: AMES SALMONELLA TYPHIMURIUM, Strain/Indicator: TA98, Metabolic Activation: HAMSTER, LIVER, S-9, AROCLOR 1254, Method: PREINCUBATION): inactive; negative; mutagenic call (Test System: AMES SALMONELLA TYPHIMURIUM, Strain/Indicator: TA98, Metabolic Activation: RAT, LIVER, S-9, AROCLOR 1254, Method: PREINCUBATION): inactive; negative; mutagenic call (Test System: AMES SALMONELLA TYPHIMURIUM, Strain/Indicator: TA100, Metabolic Activation: HAMSTER, LIVER, S-9, AROCLOR 1254, Method: PREINCUBATION): inactive; negative; mutagenic call (Test System: AMES SALMONELLA TYPHIMURIUM, Strain/Indicator: TA100, Metabolic Activation: RAT, LIVER, S-9, AROCLOR 1254, Method: PREINCUBATION): inactive; negative; mutagenic call (Test System: AMES SALMONELLA TYPHIMURIUM, Strain/Indicator: TA1535, Metabolic Activation: HAMSTER, LIVER, S-9, AROCLOR 1254, Method: PREINCUBATION): inactive; negative; mutagenic call (Test System: AMES SALMONELLA TYPHIMURIUM, Strain/Indicator: TA1535, Metabolic Activation: RAT, LIVER, S-9, AROCLOR 1254, Method: PREINCUBATION): inactive; negative; mutagenic call (Test System: AMES SALMONELLA TYPHIMURIUM, Strain/Indicator: TA1537, Metabolic Activation: HAMSTER, LIVER, S-9, AROCLOR 1254, Method: PREINCUBATION): inactive; negative; mutagenic call (Test System: AMES SALMONELLA TYPHIMURIUM, Strain/Indicator: TA1537, Metabolic Activation: RAT, LIVER, S-9, AROCLOR 1254, Method: PREINCUBATION): inactive; negative
O=C(O)/C=C/Cl | – | – | – | – | – | – | – | – | – | – | – | – | – | – | – | – | – | – | mutagenic call (Test System: AMES SALMONELLA TYPHIMURIUM, Strain/Indicator: TA97, Metabolic Activation: RAT, LIVER, S-9, PCB, Method: STANDARD PLATE): active; positive; mutagenic call (Test System: AMES SALMONELLA TYPHIMURIUM, Strain/Indicator: TA102, Metabolic Activation: RAT, LIVER, S-9, PCB, Method: STANDARD PLATE): active; positive
